Measurements reported in paper PMC3813382 (The Journal of General Physiology, 2013).
Entries after “also recorded” stand apart in the source; their conditions may differ.

How the values were obtained:
[1] = system: endogenous currents present in uninjected oocytes; test: Effect of NFA on uninjected oocytes; type: cell-based, Xenopus laevis
[2] = target: T1, C236A Slo2.1 channels (Homo sapiens, UniProt Q6UVM3, C236A); test: Activation of ISlo2.1 by NFA, two-electrode voltage clamp in oocytes; type: cell-based; details: 1 mM NFA, 0 mV
T1 sequence (Q6UVM3 1-1135 C236A): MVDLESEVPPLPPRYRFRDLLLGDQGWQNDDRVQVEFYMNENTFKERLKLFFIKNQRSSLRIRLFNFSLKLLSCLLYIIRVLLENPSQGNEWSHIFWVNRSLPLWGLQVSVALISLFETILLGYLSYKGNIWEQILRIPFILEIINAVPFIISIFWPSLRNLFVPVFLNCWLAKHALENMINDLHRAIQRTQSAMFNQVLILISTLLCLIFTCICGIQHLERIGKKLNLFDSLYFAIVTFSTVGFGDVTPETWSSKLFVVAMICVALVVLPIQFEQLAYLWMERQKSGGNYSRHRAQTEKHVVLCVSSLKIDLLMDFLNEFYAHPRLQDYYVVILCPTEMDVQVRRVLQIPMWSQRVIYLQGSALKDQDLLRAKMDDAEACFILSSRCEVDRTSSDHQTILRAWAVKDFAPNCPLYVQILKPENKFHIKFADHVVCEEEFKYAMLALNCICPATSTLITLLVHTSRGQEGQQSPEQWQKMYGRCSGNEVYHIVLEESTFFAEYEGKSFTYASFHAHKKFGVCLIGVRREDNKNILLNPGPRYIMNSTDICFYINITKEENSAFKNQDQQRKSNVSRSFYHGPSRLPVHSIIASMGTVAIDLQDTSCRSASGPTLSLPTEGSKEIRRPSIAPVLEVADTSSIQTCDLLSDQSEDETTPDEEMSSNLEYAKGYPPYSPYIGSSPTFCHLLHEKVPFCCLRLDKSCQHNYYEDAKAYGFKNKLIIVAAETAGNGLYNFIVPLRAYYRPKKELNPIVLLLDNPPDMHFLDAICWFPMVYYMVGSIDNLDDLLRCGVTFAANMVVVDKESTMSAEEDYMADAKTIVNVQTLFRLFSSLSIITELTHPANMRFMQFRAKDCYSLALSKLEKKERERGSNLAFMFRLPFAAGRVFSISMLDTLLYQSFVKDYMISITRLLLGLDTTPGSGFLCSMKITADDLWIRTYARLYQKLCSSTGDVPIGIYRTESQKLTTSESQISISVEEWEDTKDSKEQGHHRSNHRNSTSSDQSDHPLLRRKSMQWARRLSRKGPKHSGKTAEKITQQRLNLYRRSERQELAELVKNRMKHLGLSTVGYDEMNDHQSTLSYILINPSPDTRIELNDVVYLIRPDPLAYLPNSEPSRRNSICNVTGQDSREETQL

response of C236A channels to NFA [2]: insensitive to 1 mM NFA
Compound: O=C(O)c1cccnc1Nc1cccc(C(F)(F)F)c1 [NFA, niflumic acid]
effect on endogenous currents in uninjected oocytes ([1]; 1 mM NFA, I-Vt relationships): reduced | effect on endogenous currents in uninjected oocytes ([1]; 6 mM NFA, I-Vt relationships): increased; also recorded: activated a relatively small endogenous current | effect on endogenous currents in uninjected oocytes ([1]; NFA at concentrations up to 1 mM): slightly reduced
